The values that follow come from patent US20250059164A1, “IRAK DEGRADERS AND USES THEREOF” (Kymera Therapeutics, Inc., priority 2023, published 2025).

Where only a bound is given, the exact number is not on record here.

A word on the DC50: it is the midpoint of the concentration-degradation curve. The term bioavailability denotes dose-corrected exposure relative to a reference, in per cent.

One data set addresses T1, IRAK4 (Homo sapiens, UniProt Q9NWZ3).
T1 construct: endogenous in cells; host or cells: OCI-LY10
T1 sequence (Q9NWZ3 1-460): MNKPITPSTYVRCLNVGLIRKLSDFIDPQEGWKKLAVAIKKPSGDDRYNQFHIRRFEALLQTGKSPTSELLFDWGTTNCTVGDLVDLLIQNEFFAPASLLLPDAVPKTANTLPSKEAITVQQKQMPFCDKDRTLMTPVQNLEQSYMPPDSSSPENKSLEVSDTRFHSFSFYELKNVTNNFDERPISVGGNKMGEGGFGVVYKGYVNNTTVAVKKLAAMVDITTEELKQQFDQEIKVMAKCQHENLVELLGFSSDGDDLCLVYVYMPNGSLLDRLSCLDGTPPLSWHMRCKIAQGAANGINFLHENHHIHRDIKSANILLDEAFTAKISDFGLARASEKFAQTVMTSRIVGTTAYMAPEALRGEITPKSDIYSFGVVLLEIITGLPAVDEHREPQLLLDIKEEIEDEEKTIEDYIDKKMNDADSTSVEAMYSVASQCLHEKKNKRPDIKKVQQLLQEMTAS
Briefly: IRAK4 MSD degradation in OCI-LY10. It counts as cell-based. To be noted: OCI-LY10 cells, 24 hrs, Meso Scale Discovery. Put shortly:
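OCI-LY10 cells treated 4 to 24 hours at 37° C. with 8-dose 1:3 series, top 1 to 10 μM. IRAK4 in lysates quantified by MSD sandwich immunoassay (mouse capture, rabbit detection, SULFO-TAG anti-rabbit). DC50 from three-parameter logistic fit.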

Data set [1] can be described thus: Rodent pharmacokinetics (rat PK). The data set is classed as in vivo. The note with it: po, dosed intravenously or orally by gavage, plasma, read-out: F % (bioavailability). As to the method: All studies related to handling, care, and treatment of rats in the study were performed according to the guidelines approved by the Institutional Animal Care and Use Committee (IACUC). All rats had access to food and water ad libitum. Rats were dosed intravenously or orally by gavage. Whole blood was collected from the jugular vein immediately prior to dosing and at 5 (intravenously administered drugs only), 15, and 30 min and 1, 2, 4, 8, and 24 h after drug administration. After sampling, whole blood was centrifuged at 4,000×g for 5 min at 4° C. to obtain plasma.
The letter codes for bioavailability (F %) include: A (≥5%) and B (≤5%).

The compound `Cn1c(=O)n(C2CCC(=O)NC2=O)c2cccc(N3CCC4(CCN(C[C@H]5CC[C@H](n6cc7cc(NC(=O)c8cncc(C#N)c8)c(C(C)(C)O)cc7n6)CC5)CC4(F)F)CC3)c21` (mixture of isomers) [I-136, 5-Cyano-N-[2-[4-[[9-[1-(2,6-dioxo-3-piperidyl)-3-methyl-2-oxo-benzimidazol-4-yl]-5,5-difluoro-3,9-diazaspiro[5.5]undecan-3-yl]methyl]cyclohexyl]-6-(1-hydroxy-1-methyl-ethyl)indazol-5-yl]pyridine-3-carboxamide] showed a DC50 at IRAK4 of under 10 nM. Moreover, the bioavailability in data set [1] is at most 5%.

On to `COc1ccc2c(c1N1CC3(CCN(C[C@H]4CC[C@H](n5cc6cc(NC(=O)c7cncc(C#N)c7)c(C(C)(C)O)cc6n5)CC4)CC3(F)F)C1)n(C)c(=O)n2C1CCC(=O)NC1=O` (mixture of isomers) [I-227, 5-Cyano-N-[2-[4-[[2-[1-(2,6-dioxo-3-piperidyl)-5-methoxy-3-methyl-2-oxo-benzimidazol-4-yl]-5,5-difluoro-2,7-diazaspiro [3.5]nonan-7-yl]methyl]cyclohexyl]-6-(1-hydroxy-1-methyl-ethyl)indazol-5-yl]pyridine-3-carboxamide], for which the DC50 on IRAK4 was under 10 nM. In addition, in data set [1], the bioavailability was at most 5%.

On to `CN(C[C@H]1CC[C@H](n2cc(NC(=O)c3cnn4ccc(N5C[C@H]6C[C@@H]5CO6)nc34)c(C(F)F)n2)CC1)[C@H]1CCN(c2cccc3c2n(C)c(=O)n3C2CCC(=O)NC2=O)C[C@H]1F` (single isomer, unassigned) [I-27], for which the DC50 on IRAK4 was under 10 nM. Besides, in data set [1], the bioavailability is at most 5%.

Take `CN(C[C@H]1CC[C@H](n2cc(NC(=O)c3cnn4ccc(N5C[C@H]6C[C@@H]5CO6)nc34)c(C(F)F)n2)CC1)[C@H]1CCN(c2cccc3c2n(C)c(=O)n3C2CCC(=O)NC2=O)C[C@@H]1F` (single isomer, unassigned) [I-28]: the DC50 on IRAK4 was under 10 nM. The bioavailability in data set [1] is at least 5%.

At IRAK4, `O=C1CCC(c2ccc(N3CC(N4CCN([C@H]5CC[C@H](n6cc(NC(=O)c7cnn8ccc(N9C[C@H]%10C[C@@H]9CO%10)nc78)c(C(F)F)n6)CC5)CC4)C3)cc2Cl)C(=O)N1` (single isomer, unassigned) [I-46] came in with a DC50 of under 10 nM. In data set [1], the bioavailability was at least 5%.

`Cn1c(=O)n(C2CCC(=O)NC2=O)c2cccc([C@@H]3CCN(C[C@H]4CC[C@H](c5nc6cc(C(C)(C)O)c(NC(=O)c7cccc(C(F)(F)F)n7)cc6s5)CC4)C[C@H]3F)c21` (single isomer, unassigned) [I-102]: the DC50 at IRAK4 is under 10 nM. Further, the bioavailability in data set [1] was at least 5%.

`CN(C[C@H]1CC[C@H](c2nc3cc(C(C)(C)O)c(NC(=O)c4cccc(C(F)(F)F)n4)cc3s2)CC1)[C@@H]1CCN(c2cccc3c2n(C)c(=O)n3C2CCC(=O)NC2=O)C[C@@H]1F` (single isomer, unassigned) [I-104] gave a half-maximal degradation concentration (DC50) at IRAK4 of under 10 nM. For the same compound, in data set [1], the bioavailability is at least 5%.

Take `COc1cc2nn([C@H]3CC[C@H](CN4CC[C@H](c5cccc6c5n(C)c(=O)n6C5CCC(=O)NC5=O)C(F)(F)C4)CC3)cc2cc1NC(=O)c1cncc(C#N)c1` (single isomer, unassigned) [I-106]: on IRAK4, the DC50 is under 10 nM. Moreover, the bioavailability in data set [1] was at most 5%.

Take `Cn1c(=O)n(C2CCC(=O)NC2=O)c2cccc([C@@H]3CCN(C[C@H]4CC[C@H](n5cc6cc(NC(=O)c7cncc(C(F)(F)F)n7)ccc6n5)CC4)C[C@H]3F)c21` (single isomer, unassigned) [I-112]: on IRAK4, the DC50 is under 10 nM. In data set [1], the bioavailability was at most 5%.

Take `COc1cc2nc([C@H]3CC[C@H](CN4CC[C@H](c5cccc6c5n(C)c(=O)n6C5CCC(=O)NC5=O)C(F)(F)C4)CC3)sc2cc1NC(=O)c1cncc(C#N)c1` (single isomer, unassigned) [I-140]: the DC50 at IRAK4 was over 200 nM. For the same compound, in data set [1], the bioavailability was at most 5%.

The compound `CN(C[C@H]1CC[C@H](c2nc3cc(C(C)(C)O)c(NC(=O)c4cncc(C(F)(F)F)c4)cc3s2)CC1)[C@@H]1CCN(c2cccc3c2n(C)c(=O)n3C2CCC(=O)NC2=O)C[C@H]1F` (single isomer, unassigned) [I-159] came in with a DC50 on IRAK4 of 10 to 100 nM. Moreover, in data set [1], the bioavailability is at least 5%.

As for `CN(C[C@H]1CC[C@H](c2nc3cc(C(C)(C)O)c(NC(=O)c4cncc(C(F)(F)F)c4)cc3s2)CC1)[C@@H]1CCN(c2cccc3c2n(C)c(=O)n3C2CCC(=O)NC2=O)C[C@@H]1F` (single isomer, unassigned) [I-161], the DC50 at IRAK4 is under 10 nM. In addition, the bioavailability in data set [1] was at least 5%.

With `CN(C[C@H]1CC[C@H](c2nc3cc(C(C)(C)O)c(NC(=O)c4cncc(C(F)(F)F)c4)cc3s2)CC1)[C@H]1CCN(c2cccc3c2n(C)c(=O)n3C2CCC(=O)NC2=O)C[C@H]1F` (single isomer, unassigned) [I-162], the DC50 at IRAK4 was under 10 nM. In addition, the bioavailability in data set [1] is at least 5%.

On IRAK4, `Cn1c(=O)n(C2CCC(=O)NC2=O)c2cccc([C@H]3CCN(C[C@H]4CC[C@H](n5cc6cc(NC(=O)c7cncc(C(F)(F)F)n7)ccc6n5)CC4)CC3(F)F)c21` (single isomer, unassigned) [I-180] registered a DC50 of under 10 nM. For the same compound, the bioavailability in data set [1] is at least 5%.

Consider `CN(C[C@H]1CC[C@H](c2nc3cc(C(C)(C)O)c(NC(=O)c4cccc(C(F)(F)F)c4)cc3s2)CC1)[C@@H]1CCN(c2cccc3c2n(C)c(=O)n3C2CCC(=O)NC2=O)C[C@@H]1F` (single isomer, unassigned) [I-192], for which the DC50 at IRAK4 was under 10 nM. The bioavailability in data set [1] is at least 5%.

The compound `CN(C[C@H]1CC[C@H](c2nc3cc(C(C)(C)O)c(NC(=O)c4cccc(C(F)(F)F)c4)cc3s2)CC1)[C@H]1CCN(c2cccc3c2n(C)c(=O)n3C2CCC(=O)NC2=O)C[C@H]1F` (single isomer, unassigned) [I-199] yielded a DC50 on IRAK4 of 10 to 100 nM. Moreover, the bioavailability in data set [1] is at least 5%.

With `Cn1c(=O)n(C2CCC(=O)NC2=O)c2cccc([C@H]3CCN(C[C@H]4CC[C@H](n5cc6cc(NC(=O)c7cncc(C(F)(F)F)n7)ncc6n5)CC4)CC3(F)F)c21` (single isomer, unassigned) [I-205], the DC50 at IRAK4 was under 10 nM. Also, the bioavailability in data set [1] is at most 5%.

As to `Cn1c(=O)n(C2CCC(=O)NC2=O)c2cccc([C@@H]3CCN(C[C@H]4CC[C@H](n5cc6cc(NC(=O)c7cncc(C(F)(F)F)n7)ncc6n5)CC4)CC3(F)F)c21` (single isomer, unassigned) [I-206], at IRAK4, the DC50 is 10 to 100 nM. Also, the bioavailability in data set [1] was at least 5%.

`Cn1c(=O)n([C@@H]2CCC(=O)NC2=O)c2cccc([C@@H]3CCN(C[C@H]4CC[C@H](n5cc6cc(NC(=O)c7cncc(C(F)(F)F)n7)ccc6n5)CC4)C[C@H]3F)c21` (single isomer, unassigned) [I-208] registered a DC50 at IRAK4 of under 10 nM. In data set [1], the bioavailability was at most 5%.

`Cn1c(=O)n([C@H]2CCC(=O)NC2=O)c2cccc([C@@H]3CCN(C[C@H]4CC[C@H](n5cc6cc(NC(=O)c7cncc(C(F)(F)F)n7)ccc6n5)CC4)C[C@H]3F)c21` (single isomer, unassigned) [I-209]: the DC50 at IRAK4 is under 10 nM. Further, the bioavailability in data set [1] was at most 5%.

Regarding `CN(C[C@H]1CC[C@H](c2cn3cc(NC(=O)c4cncc(C(F)(F)F)n4)ccc3n2)CC1)[C@@H]1CCN(c2cccc3c2n(C)c(=O)n3C2CCC(=O)NC2=O)C[C@@H]1F` (single isomer, unassigned) [I-213], the DC50 at IRAK4 is under 10 nM. Further, the bioavailability in data set [1] was at most 5%.

`Cn1nc(C2CCC(=O)NC2=O)c2cccc([C@@H]3CCN(C[C@H]4CC[C@H](n5cc6cc(NC(=O)c7cncc(C#N)c7)c(C(C)(C)O)cc6n5)CC4)CC3(F)F)c21` (single isomer, unassigned) [I-222]: the DC50 on IRAK4 was under 10 nM. Further, in data set [1], the bioavailability was at least 5%.

On IRAK4, `Cn1nc(C2CCC(=O)NC2=O)c2cccc([C@H]3CCN(C[C@H]4CC[C@H](n5cc6cc(NC(=O)c7cncc(C#N)c7)c(C(C)(C)O)cc6n5)CC4)CC3(F)F)c21` (single isomer, unassigned) [I-223] returned a half-maximal degradation concentration (DC50) of under 10 nM. Besides, the bioavailability in data set [1] was at most 5%.

As to `Cn1c(=O)n(C2CCC(=O)NC2=O)c2ccc(F)c([C@@H]3CCN(C[C@H]4CC[C@H](n5cc6cc(NC(=O)c7cncc(C#N)c7)c(C(C)(C)O)cc6n5)CC4)CC3(F)F)c21` (single isomer, unassigned) [I-226], the DC50 at IRAK4 was under 10 nM. For the same compound, in data set [1], the bioavailability was at most 5%.

As for `Cn1c(=O)n(C2CCC(=O)NC2=O)c2cccc([C@@H]3CCN(C[C@H]4CC[C@H](c5nc6cc(C(C)(C)O)c(NC(=O)c7cncc(C#N)c7)cc6s5)CC4)C[C@H]3F)c21` (single isomer, unassigned) [I-229], the DC50 on IRAK4 was under 10 nM. Moreover, in data set [1], the bioavailability is at most 5%.

On to `CN(C[C@H]1CC[C@H](c2nc3cc(C(C)(C)O)c(NC(=O)c4cccc(C(F)(F)F)n4)cc3s2)CC1)[C@@H]1CCN(c2cccc3c2n(C)c(=O)n3C2CCC(=O)NC2=O)C[C@H]1F` (single isomer, unassigned) [I-238], for which the DC50 on IRAK4 is under 10 nM. The bioavailability in data set [1] is at least 5%.
